In PMC6149664, “Synthesis and In Vitro Antimycobacterial Activity of Novel N-Arylpiperazines Containing an Ethane-1,2-diyl Connecting Chain” (Molecules : A Journal of Synthetic Chemistry and Natural …, 2017):
Where two headings read alike, the source gives them in different places.

What was measured:
[1] = Isocratic RP-HPLC lipophilicity (k, log k, extrapolated log kw, slope S), MeOH/water mobile phases; assay type: physicochemical; conditions: for log kw (RP-HPLC): extrapolated to 100% water from log k vs ϕM (MeOH); for S, slope (RP-HPLC): slope of regression log k vs ϕM, alternative measure of lipophilicity
Source text: Octadecyl-functionalized silica gel was used as a stationary phase in the RP-HPLC evaluation of 8a–h. A gradient of two solvents at different volume ratios modulated retention properties of a stationary phase. Liquid binary mixtures of methanol (MeOH) with water were employed as mobile phases in a present isocratic RP-HPLC method. The MeOH organic modifier was preferred because of making a reversed-phase chromatographic system closer to the octan-1-ol/water partitioning one in terms of sensitivity to H-bond donor properties of investigated compounds [39, 40]. The modifier was applied in different volume concentrations that varied from 60% to 85% (v/v).
The chromatographic HPLC-Diode Array Detection apparatus for the determination of capacity (retention) factor k (log k) values was the LC Agilent Infinity System (Agilent Technologies, Santa Clara, CA, USA) equipped with a Infinity 1260 gradient pump with a degasser, a 1260 HiPals automatic injector, a column thermostat 1290, a photo-diode array detector Infinity 1290 (all the equipments were obtained by Agilent Technologies) and personal computer with the Agilent ChemStation software (Agilent Technologies) for the registration of values and calibration procedures. The chromatographic column Eclipse plus RP C18, 150 × 4.6 mm i.d., a 5 μm particle size (Agilent Technologies), was used and thermostated at 35 °C.
The analyses were performed at pressure ranged from 7 MPa to 15 MPa. The detection wavelength was set to 260 nm, injection sample volume was 5 μL with a flow rate of 1.0 mL/min in all RP-HPLC analyses.
LC-MS Methanol (J. T. Baker Chemicals Co., Phillipsburg, NJ, USA) and HPLC-quality water (Sigma-Aldrich, Darmstadt, Germany) were used for a preparation of mobile phases. Water was firstly deionized and purified by the Millipore Simplicity 185 Ultrapure water purification system (Millipore, Billerica, MA, USA).
Methanol (MeOH)/water mobile phases with a various volume ratio of the organic modifier and water (60:40, 70:30, 80:20 and 85:15, respectively; v/v) were chosen. A concentration of all analyzed compounds 8a–h was c = 0.25 mg/mL. An queous solution of potassium nitrate (c = 0.1 M) was used for the determination of dead time t0 = 1.295 min. The capacity (retention) factor k values (Table 1) were calculated by Equation (6) as follows:k = (tr – t0)/t0(6) where the tr and t0 parameters were the retention times of a solute (tr) and unretained compound (potassium nitrate; t0), respectively. The observed retention (tr) and dead (t0) times were means of three independent determinations.
The log kw values, i.e., the logarithms of extrapolated capacity (retention) factors for 100% water in the isocratic RP-HPLC, were determined from intercepts of linear plots between the log k and ϕM (a volume fraction of an organic modifier in the isocratic elution RP-HPLC) according to Equation (7): log k = log kw – S × ϕM(7) where the S parameter represented the slope of a regression curve, which was related to the solvent strength of a pure organic solvent.

[2] = system: M. tuberculosis CNCTC My 331/88 (identical with H37Rv and ATCC 2794); test: In vitro antimycobacterial MIC, dilution-micromethod in Šula semisynthetic medium; assay type: cell-based; conditions: Mycobacterium tuberculosis
[3] = system: M. kansasii 6 509/96 clinical isolate; test: as above; assay type: cell-based; conditions: Mycobacterium kansasii, read-out: MIC, MK 6 509/96
[4] = system: human monocytic leukemia THP-1 cell line; test: In vitro cytotoxicity screening, LDH assay; conditions: 24 h
[5] = mobile phase MeOH/water 60:40 (v/v)
[6] = mobile phase MeOH/water 70:30 (v/v)
[7] = mobile phase MeOH/water 80:20 (v/v)
[8] = mobile phase MeOH/water 85:15 (v/v)
[9] = 336 h, 14 d cultivation, read-out: MIC, MT My 331/88
[10] = 504 h, 21 d cultivation, read-out: MIC, MT My 331/88
[11] = 336 h, 14-d/21-d cultivation, read-out: MIC against M. tuberculosis CNCTC My 331/88

SMILES | capacity factor k (RP-HPLC) ([1]; MeOH/water 60:40 (v/v)) | capacity factor k (RP-HPLC) ([1]; MeOH/water 70:30 (v/v)) | capacity factor k (RP-HPLC) ([1]; MeOH/water 80:20 (v/v)) | capacity factor k (RP-HPLC) ([1]; MeOH/water 85:15 (v/v)) | log kw (RP-HPLC) [1] | log k (RP-HPLC) [1, 5] | log k (RP-HPLC) [1, 6] | log k (RP-HPLC) [1, 7] | log k (RP-HPLC) [1, 8] | S, slope (RP-HPLC) [1] | MIC [2, 9] | MIC [2, 10] | MIC ([3]; 168 h, 7 d cultivation) | MIC ([3]; 336 h, 14 d cultivation) | MIC ([3]; 504 h, 21 d cultivation) | MIC [2, 11] | Effect on proliferation of the THP-1 cells compared to a control [4] | MIC ([3]; 168 h) | Relative survival rate of the THP-1 cells ([4]; highest tested concentration of 30 μM)
CCCOC(=O)Nc1ccc(C(O)CN2CCN(c3ccccc3F)CC2)cc1.Cl (stereo not shown) [8g, 1-(2-Hydroxy-2-{4-[(propoxycarbonyl)amino]phenyl}ethyl)-4-(2-fluorophenyl)piperazin-1-ium chloride] | 5.394 | 3.108 | 1.342 | 0.956 | 2.600 | 0.732 | 0.492 | 0.128 | −0.020 | 3.0739 | 16 µM | 16 µM | 125 µM | > 250 µM | > 250 µM |  |  |  | 
COC(=O)Nc1ccc(C(O)CN2CCN(c3ccccc3F)CC2)cc1.Cl (stereo not shown) [8e, 1-(2-Hydroxy-2-{4-[(methoxycarbonyl)amino]phenyl}ethyl)-4-(2-fluorophenyl)piperazin-1-ium chloride] | 3.098 | 1.456 | 0.822 | 0.637 | 2.113 | 0.491 | 0.163 | −0.085 | −0.196 | 2.7386 | 125 µM | 125 µM | 125 µM | 500 µM | 500 µM | 125 µM | increased proliferation |  | 
COC(=O)Nc1cccc(C(O)CN2CCN(c3ccccc3F)CC2)c1.Cl (stereo not shown) [8a, 1-(2-Hydroxy-2-{3-[(methoxycarbonyl)amino]phenyl}ethyl)-4-(2-fluorophenyl)piperazin-1-ium chloride] | 4.091 | 1.770 | 0.925 | 0.699 | 2.430 | 0.612 | 0.248 | −0.034 | −0.156 | 3.0678 | 250 µM | 250 µM | 125 µM | 500 µM | 500 µM | 250 µM | increased proliferation |  | 
CCOC(=O)Nc1cccc(C(O)CN2CCN(c3ccccc3F)CC2)c1.Cl (stereo not shown) [8b, 1-(2-{3-[(Ethoxycarbonyl)amino]phenyl}-2-hydroxyethyl)-4-(2-fluorophenyl)piperazin-1-ium chloride] | 4.951 | 2.778 | 1.245 | 0.879 | 2.546 | 0.695 | 0.444 | 0.095 | −0.056 | 3.0529 | 125 µM | 125 µM | 62.5 µM | 250 µM | 250 µM |  |  |  | 
CCOC(=O)Nc1ccc(C(O)CN2CCN(c3ccccc3F)CC2)cc1.Cl (stereo not shown) [8f, 1-(2-{4-[(Ethoxycarbonyl)amino]phenyl}-2-hydroxyethyl)-4-(2-fluorophenyl)piperazin-1-ium chloride] | 4.524 | 2.053 | 1.023 | 0.757 | 2.512 | 0.656 | 0.312 | 0.010 | −0.121 | 3.1156 | 32 µM | 62.5 µM |  | > 125 µM | > 125 µM |  |  | 62.5 µM | 
CCCCOC(=O)Nc1ccc(C(O)CN2CCN(c3ccccc3F)CC2)cc1.Cl (stereo not shown) [8h, 1-(2-{4-[(Butoxycarbonyl)amino]phenyl}-2-hydroxyethyl)-4-(2-fluorophenyl)piperazin-1-ium chloride] | 7.598 | 4.627 | 1.736 | 1.173 | 2.930 | 0.881 | 0.665 | 0.240 | 0.069 | 3.3441 | 8 µM | 8 µM | 125 µM | > 250 µM | > 250 µM | 8 µM |  |  | 
CCCCOC(=O)Nc1cccc(C(O)CN2CCN(c3ccccc3F)CC2)c1.Cl (stereo not shown) [8d, 1-(2-{3-[(Butoxycarbonyl)amino]phenyl}-2-hydroxyethyl)-4-(2-fluorophenyl)piperazin-1-ium chloride] | 6.738 | 5.039 | 1.769 | 1.185 | 2.796 | 0.829 | 0.702 | 0.245 | 0.074 | 3.1641 | 32 µM | 32 µM | 16 µM | 32 µM | 62.5 µM | 32 µM |  |  | 79%
CCCOC(=O)Nc1cccc(C(O)CN2CCN(c3ccccc3F)CC2)c1.Cl (stereo not shown) [8c, 1-(2-Hydroxy-2-{3-[(propoxycarbonyl)amino]phenyl}ethyl)-4-(2-fluorophenyl)piperazin-1-ium chloride] | 5.898 | 3.561 | 1.466 | 1.023 | 2.679 | 0.771 | 0.552 | 0.166 | 0.010 | 3.1244 | 62.5 µM | 62.5 µM | 32 µM | 125 µM | 125 µM |  |  |  | 
